Measurements: paper PMC8284440, “Toward New Transmission-Blocking Combination Therapies: Pharmacokinetics of 10-Amino-Artemisinins and 11-Aza-Artemisinin and Comparison with Dihydroartemisinin and Artemether” (Antimicrobial Agents and Chemotherapy, 2021)
Where two headings read alike, the source gives them in different places.

Columns and labels:
P. falciparum K1 = system: P. falciparum K1; design: method as in ref 4 (supplement; main text 62); conditions: Table S2, ± SEM; ref 4 (supplement; main text 62); read-out: Antimalarial activities IC50 K1; cited from earlier work
[1] = Pharmacokinetics in mice, intravenous administration; format: in vivo, male C57/BL6 mice; conditions: for AUC: 0 h to last, parent; for V: volume of distribution during elimination phase; for half-life / CLint scaled / clearance: male; for half-life: C57/BL6, iv, mouse plasma; for CLint scaled / clearance: C57/BL6, mouse, plasma, iv; for clearance: read-out: CLtot; for DHA detected as a metabolite: mouse PK studies, i.v. and p.o., LC-MS/MS
Description: (§1) (i) Animals. Healthy male C57/BL6 mice each weighing approximately 25 g were used. The mice maintained at the University of Cape Town animal facility were housed in 27 by 21 by 18 cm cages, under controlled environmental conditions at 22 ± 2°C and a 12-h light/dark cycle. Humidity was monitored and ranged between 55 and 70%. Food and water were available ad libitum. Mice were acclimatized to their environment for 7 days before experiments were initiated.
(iii) Intravenous drug administration. For the intravenous formulations, each of artemether, the amino-artemisinins 5 to 10, and 11-aza-artemisinin 11 (2.5 mg) was dissolved in 1 ml DMSO/PEG/PPG (1:3:6, vol/vol). DMSO was added first, followed by PEG and then PPG. The resulting solutions in the mixture of DMSO, PEG, and PPG (1:3:6, vol/vol) were administered intravenously at a dose of 10 mg/kg (n = 3) via injection into the dorsal penile vein. Mice were anesthetized with an intraperitoneal injection of a saline ketamine/xylazine solution. This consisted of 1 ml ketamine (100 mg/ml), 0.5 ml xylazine (20 mg/ml), and 8.5 ml PBS solution to make a total volume of 10 ml. Dosage of anesthetic preparation for mice was […]; this amounts to a dose of 80 mg/kg ketamine and 10 mg/kg xylazine. The total volume of administration was dose adjusted to 10 mg/kg with an approximate volume of 80 μl, according to the weight of each animal on the morning of dosing. Blood samples for the amino-artemisinins 5 to 8 and 10 were collected via tail-bleeding predose and at 0.08, 0.25, 0.5, 1, 2, and 4 h, and blood samples for the phenylurea 9 and 11-aza-artemisinin 11 were collected at 0.08, 0.5, 1, 2, 4, 8, and 24 h postdose. Samples were all placed in 0.5 ml lithium heparin microvials to prevent blood coagulation. The samples were immediately centrifuged at 5,590 × g for 5 min and the plasma was transferred to new microvials. The plasma samples were stored at −80°C.
(§2) Sample extraction. […] The organic layer was then transferred and evaporated under a gentle stream of nitrogen at room temperature for 30 min. The dried samples were reconstituted in mobile phase, and a 5 μl sample was injected for LC-MS/MS analysis. The only exception was the arylurea 10, for which no liquid-liquid extraction was conducted; instead, the 200 μl acetonitrile solution was evaporated under a gentle stream of nitrogen at room temperature. The dried sample was reconstituted in the mobile phase, and a 5 μl sample was injected for LC-MS/MS analysis. The plasma samples for each compound from the in vivo studies were extracted by mixing 350 μl ethyl acetate with 15 μl of plasma sample and 35 μl of universal buffer containing internal standard at pH 8. The samples were vortexed for 1 min and centrifuged for 5 min, and the organic layer was then transferred and evaporated under a gentle stream of nitrogen at room temperature for 30 min. The dried samples were each reconstituted in the mobile phase, and a 5 μl sample was injected for LC-MS/MS analysis.
(§3) LC-MS/MS analysis. For all the artemisinins except the arylurea 10, gradient chromatography was performed on a Phenomenex (Torrance, CA, USA) Luna PFP(2) analytical column (100 Å, 5 μm, 2 by 50 mm) and an AB Sciex API 5500 mass spectrometer which was operated at unit resolution in the multiple reaction monitoring (MRM) mode. The HPLC method used was a gradient method with 5 mM ammonium acetate and 0.1% acetic acid in water as the aqueous phase and a mixture of acetonitrile and methanol (1:1 vol/vol) containing 5% of the aqueous phase as the organic phase ([89]). The arylurea 10 was analyzed using a Phenomenex Gemini NX-C18 (5 μm, 2.1 mm by 50 mm) column with an AB Sciex 3200 QTRAP mass spectrometer operated at unit resolution in the MRM mode. The HPLC method used was a gradient method with 5 mM ammonium acetate and 0.1% acetic acid in water as the aqueous phase and a mixture of acetonitrile and methanol (1:1 vol/vol).

[2] = Pharmacokinetics in mice, oral administration; format: in vivo, male C57/BL6 mice; conditions: for bioavailability / Cmax / Tmax: male, C57/BL6, mouse, plasma; for bioavailability: 50 mg/kg; for bioavailability / F: oral bioavailability, p.o. 50 mg/kg vs i.v. 10 mg/kg; for Cmax / Tmax / AUC: p.o. 50 mg/kg, parent; for AUC: 0 h to last
Description: as §1
(ii) Oral drug administration. Each of artemether, the amino-artemisinins 5 to 10, and 11-aza-artemisinin 11 (12.5 mg) was dissolved in 0.2 ml DMSO, to which 1.8 ml 0.5% (wt/vol) HPMC in water was then added. Compounds were administered orally via gavage at a dose of 50 mg/kg (n = 3). Dosing volumes were calculated based on the weight of each mouse in the respective group. The dosing volumes ranged between 160 μl and 200 μl, ensuring that the dose remained at 50 mg/kg. Blood samples for amino-artemisinins 5 to 8 and 10 were collected via tail-bleeding predose and at 0.08, 0.25, 0.5, 1, 2, and 4 h. Blood samples for the phenylurea 9 and 11-aza-artemisinin 11 were collected at 0.08, 0.5, 1, 2, 4, 8, and 24 h postdose. Samples were placed in 0.5 ml lithium heparin micro vials to prevent blood coagulation. […] The samples were immediately centrifuged at 5,590 × g for 5 min and the plasma was transferred to new microvials. The plasma samples were stored at −80°C.
as §2
as §3, with “vol/vol). The transitions of the molecular ions were monitored, as listed in Table S8 in the supporting information. The calibration range was between 0.002 μg/ml and 6.250 μg/ml.” for “vol/vol).”

[3] = system: liver stage P. berghei ANKA GFP-Luc-SMcon sporozoites; design: method as in ref 2 (supplement; main text 48); conditions: ref 2 (supplement; main text 48), cited from earlier work; for IC50: 48 h, ± SD
[4] = 10 mg/kg, i.v. 10 mg/kg, total plasma clearance
[5] = metabolite formed from i.v. artemiside 5, 10 mg/kg
[6] = metabolite formed from p.o. artemiside 5, 50 mg/kg

Row | Structure (SMILES) | IC50 (P. falciparum K1) [nM] | AUC ([1]; i.v. 10 mg/kg) [min/µmol/L] | V ([1]; i.v. 10 mg/kg) [L/kg] | half-life ([1]; i.v. 10 mg/kg) [min] | CLint scaled ([1]; 10 mg/kg) [mL/min/kg] | clearance [1, 4] [mL/min/kg] | bioavailability ([2]; po) [%] | Cmax ([2]; po) [nM] | Tmax ([2]; po) [min] | F [2] [%] | AUC [2] | IC50 [3] [nM] | Maximum inhibition % ([3]; at 10 µM) [%] | DHA detected as a metabolite [1] | also measured
1 | C[C@@H]1CC[C@H]2[C@@H](C)C(=O)N[C@@H]3O[C@@]4(C)CC[C@@H]1[C@]32OO4 [11-Aza-artemisinin 11, 11-aza-artemisinin] | 9.44 ± 2.93 | 462.7 ± 117 | 19.4 ± 7.5 | 186 ± 48 | 577 | 75 ± 8.9 | 14 | 2600 ± 10 | 30 | 7.15 ± 0.3 | 154.9 ± 10 min/µmol/L | – | – | – | DHA detected as a metabolite ([1]; listed as 11-Aza-artemisinin): could not be detected; DHA detected as a metabolite ([1]; listed as 11-aza-artemisinin): not detected; bioavailability ([2]; oral): 7%
2 | CO[C@H]1O[C@@H]2O[C@@]3(C)CC[C@H]4[C@H](C)CC[C@@H]([C@H]1C)[C@@]24OO3 [Artemether 3, artemether] | 2.64 ± 0.18 | 304.4 ± 80 | 14.1 ± 1.3 | 84 ± 12 | 855 | 120 ± 39 | 2 ± 0.6 | 600 ± 200 | 6 | – | 32.3 ± 20 min/µmol/L | > 104 | 49.4 | – | IC50 ([3]; listed as artemether): > 10000 nM
3 | C[C@H]1[C@H](N2CCSCC2)O[C@@H]2O[C@@]3(C)CC[C@H]4[C@H](C)CC[C@@H]1[C@@]24OO3 [Artemiside 5, artemiside] | – | 184.9 ± 43 | 24.3 ± 9.3 | 108 ± 30 | 674 | 130 | 1 ± 0.2 | 100 ± 10 | 60 ± 54 | – | 9.5 ± 2.5 min/µmol/L | 81.3 | – | not detected | Maximum inhibition % ([3]; at 5 µM): 99.05±1.34%; CLtot ([1]; i.v. 10 mg/kg, total plasma clearance, 10 mg/kg): 155.0 ± 46.4 mL/min/kg
4 | C[C@H]1[C@H](N2CCS(=O)(=O)CC2)O[C@@H]2O[C@@]3(C)CC[C@H]4[C@H](C)CC[C@@H]1[C@@]24OO3 [Artemisone 6, artemisone] | – | 577.5 ± 30 | 1.9 ± 0.1 | 30 ± 1.8 | 302 | 42.3 ± 2.1 | 32 | 8000 ± 800 | 18 ± 6 | 34 ± 7.5 | 922.7 ± 348 min/µmol/L | 28.3 | 93.35±1.76 | not detected | AUC of metabolite [1, 5]: 28.9 ± 1 min/µmol/L; AUC of metabolite [2, 6]: 101.5 ± 49 min/µmol/L
5 | C[C@H]1[C@H](N2CCN(C(=O)Nc3ccc(F)cc3)CC2)O[C@@H]2O[C@@]3(C)CC[C@H]4[C@H](C)CC[C@@H]1[C@@]24OO3 [Arylurea 10] | – | 315.9 ± 33 | 6.92 ± 2.9 | 78 ± 18 | 2940 | 58.9 ± 3.5 | 17.5 ± 3.1 | 2300 ± 300 | 30 | – | 276.5 ± 48.4 min/µmol/L | 106 | 94.85±2.76 | – | –
6 | C[C@H]1[C@@H](O)O[C@@H]2O[C@@]3(C)CC[C@H]4[C@H](C)CC[C@@H]1[C@@]24OO3 [DHA 2, dihydroartemisinin] | 0.8 ± 0.5 | – | – | – | – | – | – | – | – | – | – | – | – | – | AUC of metabolite ([1]; metabolite formed from i.v. artemether 3, 10 mg/kg): 155 ± 17 min/µmol/L; AUC of metabolite ([2]; metabolite formed from p.o. artemether 3, 50 mg/kg): 77 ± 12 min/µmol/L
7 | C[C@H]1[C@H](N2C=CS(=O)(=O)CC2)O[C@@H]2O[C@@]3(C)CC[C@H]4[C@H](C)CC[C@@H]1[C@@]24OO3 [M1 12] | – | – | – | – | – | – | – | – | – | – | – | – | – | – | AUC of metabolite [1, 5]: 13.8 ± 9 min/µmol/L; AUC of metabolite ([1]; metabolite formed from i.v. artemisone, 10 mg/kg): 60.6 ± 36 min/µmol/L; AUC of metabolite [2, 6]: 20.8 ± 8 min/µmol/L; AUC of metabolite ([2]; metabolite formed from p.o. artemisone 6, 50 mg/kg): 173.3 ± 51.7 min/µmol/L
8 | C[C@H]1[C@H](NS(N)(=O)=O)O[C@@H]2O[C@@]3(C)CC[C@H]4[C@H](C)CC[C@@H]1[C@@]24OO3 [Sulfamide 7] | – | 864.1 ± 213 | 1.63 ± 0.4 | 36 ± 6 | 189 | 32.2 ± 6.2 | 59 | 21700 ± 1200 | 36 ± 12 | 59.3 ± 11.6 | 2,562.3 ± 499 min/μmol/liter | – | – | not detected | –
